Legend:
[1] = tested on: NF-κB promoter, THP1-Lucia™ NF-κB cell line; assay: NF-κB promoter inhibition, THP1-Lucia NF-κB cell line; assay type: cell-based; conditions: 100 ng/ml LPS, 24 hours, read-out: NF-κB, % inhibition degree
Method: (§1) A THP1-Lucia™ NF-κB cell line (Invivogen) was used in an NF-κB inhibition experiment, and a THP1-Lucia™ ISG cell line was used in an ISG inhibition experiment. In the NF-κB inhibition experiment, cells were planted at a density of 1×10^4 cells/well in a 96-well plate, and in the ISG inhibition experiment, cells were planted at a density of 2×10^4 cells/well in a 96-well plate. The cells were treated with a compound diluted to 4-fold of a final concentration, and totally cultured for 30 minutes. NF-κB was treated with 100 ng/ml lipopolysaccharide (LPS), ISG was treated with a stimulator of 1 μg/ml Poly(dA:dT)/LyoVec, and NF-κB and ISG were cultured for 24 hours. 10 μl of a cell supernatant was taken and transferred to a 96-well plate. 50 μl of a Quanti-luc solution was aliquoted using an automatic aliquoter of a measurer (Envision Multilabel Plate Reader, Perkin Elmer, Inc.), and light emission signals were measured.

[2] = tested on: TNF-α secretion, peripheral blood mononuclear cells (PBMCs); assay: Suppression of TNF-α secretion in LPS-treated PBMCs (ELISA); assay type: cell-based; conditions: PBMC, 100 ng/ml LPS, 24 hours, read-out: TNF-α, % inhibition degree
Method: (§2) Peripheral blood mononuclear cells (PBMCs) isolated from whole blood were distributed in a 96-well plate. TNF-α was aliquoted at a density of 1×10^5 cells/well, IFN-α was aliquoted at a density of 2×10^5 cells/well, and TNF-α and IFN-α were treated with a compound diluted to 4-fold of a final concentration and totally cultured for 30 minutes. TNF-α was treated with 100 ng/ml lipopolysaccharide (LPS), IFN-α was treated with 500 nM ODN2216 (CpGTLR9 stimulator), and TNF-α and IFN-α were further cultured for 24 hours and 72 hours, respectively. An enzyme-linked immunosorbent assay (ELISA) was performed on TNF-α and IFN-α using an ELISA kit manufactured by BD Biosciences and an ELISA kit manufactured by PBL Assay Science, Inc., respectively. A cell supernatant and a standard drug were put into the ELISA plates and reacted for 2 hours. The plates were washed and a measurement antibody and streptavidin-HRP were sequentially added thereto. After the plates were washed, a TMB substrate was added thereto and reacted in a dark place. The reaction was stopped by adding a stop solution thereto, and the absorbance at 450 nm and 570 nm was measured using an absorber (OPTIMax tunable microplate reader, molecular devices). The experimental results are shown in [Table 2].

[3] = tested on: IFN-α secretion, peripheral blood mononuclear cells (PBMCs); assay: Suppression of IFN-α secretion in ODN2216-treated PBMCs (ELISA); assay type: cell-based; conditions: PBMC, 500 nM ODN2216, 72 hours, read-out: IFN-α, % inhibition degree
Method: as §2

[4] = target: T1, IRAK4 enzyme (Homo sapiens, UniProt Q9NWZ3); assay: IRAK4 enzyme inhibition degree (bead-based kinase assay, peptide substrate BMKC-2, 100 μM ATP); assay type: biochemical; conditions: for inhibition at 1 µM: compound 1 μM
T1 sequence (Q9NWZ3 1-460): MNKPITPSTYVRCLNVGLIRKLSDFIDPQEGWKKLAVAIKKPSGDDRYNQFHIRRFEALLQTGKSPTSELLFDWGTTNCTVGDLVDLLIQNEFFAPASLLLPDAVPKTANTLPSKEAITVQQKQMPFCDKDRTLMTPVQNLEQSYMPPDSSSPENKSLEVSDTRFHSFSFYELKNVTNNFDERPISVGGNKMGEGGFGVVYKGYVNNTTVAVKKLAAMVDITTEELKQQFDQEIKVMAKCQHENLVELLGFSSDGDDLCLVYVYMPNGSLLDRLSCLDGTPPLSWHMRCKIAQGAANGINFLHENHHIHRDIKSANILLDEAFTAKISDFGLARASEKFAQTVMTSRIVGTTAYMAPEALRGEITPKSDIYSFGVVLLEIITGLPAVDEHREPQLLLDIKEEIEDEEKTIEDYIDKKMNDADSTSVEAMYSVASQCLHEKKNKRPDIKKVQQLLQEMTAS
Method: 2.5 μl of a compound diluted to 4-fold of a final concentration was put into a 384-well white plate (low volume). 2.5 μl of 0.4 ng/μl IRAK4 enzyme was added thereto, and the resulting mixture was totally reacted for 10 minutes. 5 μl of a mixed liquid of a 6 μM peptide substrate (BMKC-2) and 100 μM ATP was added thereto, the resulting mixture was reacted at room temperature for 60 minutes, then 2.5 μl of 10 mM EDTA was added thereto, and the resulting mixture was reacted again for 10 minutes. 40 nM anti-phospho Thr antibody was aliquoted to 2.5 μl each, 5 μl of a mixed solution of a 160 μl/ml acceptor bead and a donor bead was added thereto, and then the resulting mixture was reacted at room temperature for 60 minutes. Fluorescence signals were measured using a bead experimental apparatus (Fusion alpha-FP Microplate Reader, Perkin Elmer Inc.).
From the detected signal, an activity inhibition rate [% inhibition degree=(the average value of a compound−the average value of a negative control)/(the average value of a positive control−the average value of a negative control)×100] was calculated, and is shown in [Table 1]. Further, a % inhibition degree of the compound at each concentration was obtained, and then a 50% inhibition concentration (IC50 value) was analyzed by a non-linear regression analysis.

[5] = tested on: ISG promoter, THP1-Lucia™ ISG cell line; assay: ISG promoter inhibition, THP1-Lucia ISG cell line; assay type: cell-based; conditions: 1 μg/ml Poly(dA:dT)/LyoVec, 24 hours, read-out: ISG, % inhibition degree
Method: as §1

SMILES | IC50 [4] [nM] | inhibition at 1 µM [4] [%] | inhibition at 0.1 µM [1] [%] | inhibition at 1 µM [1] [%] | inhibition at 0.1 µM [2] [%] | inhibition at 1 µM [2] [%] | inhibition at 0.1 µM [3] [%] | inhibition at 1 µM [3] [%] | inhibition at 0.1 µM [5] [%] | inhibition at 1 µM [5] [%]
Fc1cc(F)cc(-c2ccc3[nH]c4ncnc(N[C@H]5CC[C@H](N6CCOCC6)CC5)c4c3c2)c1 [Compound 6aal, 6-(3,5-difluorophenyl)-N-(trans-4-morpholinocyclohexyl)-9H-pyrimido[4,5-b]indole-4-amine] | 151 | 99 | < 1 | 15 | 13 | 57 | 18 | 70 | 1 | 17
Fc1ccc(-c2ccc3[nH]c4ncnc(N[C@H]5CC[C@H](N6CCOCC6)CC5)c4c3c2)c(F)c1 [Compound 6aam, 6-(2,4-difluorophenyl)-N-(trans-4-morpholinocyclohexyl)-9H-pyrimido[4,5-b]indole-4-amine] | 244 | 37 | < 1 | 11 | 5 | 28 | 9 | 55 | < 1 | < 1
CN(C)[C@H]1CC[C@H](Nc2ncnc3[nH]c4ccc(-c5cncc(F)c5)cc4c23)CC1 [Compound 6aba, trans-N1-(6-(5-fluoropyridin-3-yl)-9H-pyrimido[4,5-b]indol-4-yl)-N4,N4-dimethylcyclohexane-1,4-diamine] | 4 | 83 | 40 | 87 | 39.1 | 73.3 | 3.4 | 81.3 | 33 | 83
Cn1cc(-c2ccc3[nH]c4ncnc(N[C@H]5CC[C@H](N(C)C)CC5)c4c3c2)cn1 [Compound 6abb, trans-N1,N1-dimethyl-N4-(6-(1-methyl-1H-pyrazol-4-yl)-9H-pyrimido[4,5-b]indol-4-yl)cyclohexane-1,4-diamine] | 10 | 82 | 50 | 83 | 17.9 | 79.4 | 54 | 90.4 | 42 | 73
Cn1cc(-c2ccc3[nH]c4ncnc(N[C@H]5CC[C@H](N6CCN(S(C)(=O)=O)CC6)CC5)c4c3c2)cn1 [Compound 6aca, 6-(1-methyl-1H-pyrazol-4-yl)-N-(trans-4-(4-(methylsulfonyl)piperazin-1-yl)cyclohexyl)-9H-pyrimido[4,5-b]indole-4-amine] | 13.8 | 100 | 28 | 85 | 29 | 107 | 40 | 99 | 23 | 73
Cn1cc(-c2ccc3[nH]c4nccc(N[C@H]5CC[C@H](N6CCOCC6)CC5)c4c3c2)cn1 [Compound 17a] | – | 100 | 31 | 78 | 22 | 75 | 67 | 103 | 14 | 93

Second part, led by results:

IC50 [4] [nM] | inhibition at 1 µM [4] [%] | SMILES | inhibition at 0.1 µM [1] [%] | inhibition at 1 µM [1] [%] | inhibition at 0.1 µM [2] [%] | inhibition at 1 µM [2] [%] | inhibition at 0.1 µM [3] [%] | inhibition at 1 µM [3] [%] | inhibition at 0.1 µM [5] [%] | inhibition at 1 µM [5] [%]
104 | 98 | N#Cc1cccc(-c2ccc3[nH]c4ncnc(N[C@H]5CC[C@H](N6CCOCC6)CC5)c4c3c2)c1 [Compound 6aak, 3-(4-((trans-4-morpholinocyclohexyl)amino)-9H-pyrimido[4,5-b]indol-6-yl) benzonitrile] | < 1 | 37 | 16 | 70 | 53 | 98 | < 1 | 30
61 | 82 | Fc1ccc(-c2ccc3[nH]c4ncnc(N[C@H]5CC[C@H](N6CCOCC6)CC5)c4c3c2)cc1 [Compound 6aan, 6-(4-fluorophenyl)-N-(trans-4-morpholinocyclohexyl)-9H-pyrimido[4,5-b]indole-4-amine] | < 1 | 28 | 9 | 32 | 28 | 71 | < 1 | 6
1140 | 36 | Cn1cc(-c2ccc3[nH]c4ncnc(Nc5ccc(N6CCNCC6)cc5)c4c3c2)cn1 [Compound 6agaa, 6-(1-methyl-1H-pyrazol-4-yl)-N-(4-(piperazin-1-yl)phenyl)-9H-pyrimido[4,5-b]indole-4-amine] | < 1 | 24 | 17 | 27 | 39 | 65 | 7 | 16
1190 | 42 | c1cc(-c2ccc3[nH]c4ncnc(Nc5ccc(N6CCNCC6)cc5)c4c3c2)ccn1 [Compound 6agba, N-(4-(piperazin-1-yl)phenyl)-6-(pyridin-4-yl)-9H-pyrimido[4,5-b]indole-4-amine] | < 1 | 6 | 26 | 87 | 56 | 74 | 6 | 8
1360 | 50 | c1cc(-c2ccc3c(c2)[nH]c2ncnc(N[C@H]4CC[C@H](N5CCOCC5)CC4)c23)ccn1 [Compound 6caa, N-(trans-4-morpholinocyclohexyl)-7-(pyridin-4-yl)-9H-pyrimido[4,5-b]indole-4-amine] | 5 | 10 | 5 | 40 | 40 | 60 | 1 | 10
